Experimental data published in patent publication US6710060B2, “4-hydroxypiperidine derivatives having antiarrhythmic activity” (Mochida Pharmaceutical Co., Ltd., priority 1999, dated 2004).
Counter-ions that a name gives are not always drawn. Like-named read-outs stand apart in the source and are kept apart here.

What was measured:
[1] = test system: isolated cardiac muscle cells; experiment: Suppression activity of veratrine-induced contracture of isolated cardiac muscle; type: cell-based; conditions: Cardiac muscle cell, 5 min; rat isolated cardiac muscle cells, veratrine 100 gg/mL, 5 minutes after addition, probit analysis; read-out: IC50 (concentration of the test compound when half of the cells were contracted)
Experimental: [Suppression Activity of Veratrine-Induced Contracture of Isolated Cardiac Muscle]
Rats were anesthetized with 40 mg/kg (i.p.) of pentobarbital sodium and held in supine postion, and heparin was injected through the jugular vein. […] A polyethylene tube filled with Krebs-Ringer-HEPES (KRH) solution (pH 7.4) containing 1 mM CaCl2 was inserted through the aorta in retrograde manner, and the tube was fixed. The heart was extracted simultaneously with perfusion of the KRH solution at a hydraulic pressure of 70 cm water column. After thoroughly flushing the remaining blood by spontaneous contraction of the heart, stroke of the heart was halted by perfusion of the Ca^2+ free KRH solution for 10 minutes. The perfusion solutions described above were used after oxygenation with a mixed gas containing 95% O2 and 5% CO2 and keeping at a temperature of 37° C. Then, a KRH solution containing 25 μM CaCl2, 0.06% collagenase and 0.1% albumin was perfused for 20 minutes at 37° C. until the heart was soften. The ventricles were cut into pieces in the collagenase solution at 37° C., followed by an enzyme treatment for 10 minutes while aerating the solution with the mixed gas of 95% O2/5% CO2. The cells were dispersed by pipetting, and connective tissues were removed from the dispersed cells by filtering with a stainless steel mesh. After halting the enzyme reaction by adding albumin in the filtrate, the supernatant was discarded by centrifugation. The cells were suspended in the KRH solution containing 25 μM CaCl2 and 1% albumin, and the Ca^2+ concentration was increased stepwise by sequentially adding the CaCl2 solution in the suspension to a final concentration of 0.5 mM. A pellet of the cells was obtained by centrifugation after allowing the suspension to stand for 10 minutes. The pellet of the cells was laid on a column (10 cm in height and 15 mm in diameter) filled with the KRH solution containing 1 mM CaCl2 and 2% albumin, and the column was allowed to stand for 5 to 10 minutes. The supernatant was gently removed, and the number of rod-shaped cells in the precipitated cells was counted. The cells were re-suspended in the KRH solution containing 1 mM CaCl2 and 0.1% albumin, and pipetted into each well of a 48 well multi-plate (3548, COSTER) coated with poly-L-lysine so that each well contains 0.5 mL of the cell suspension with 1×10^4 cells/well. The suspension in each well was aerated with a mixed gas of 95% O2/5% CO2 at 37° C. for 1 hour to allow the cells to adhere on the bottom of the well. […] Then, the medium was replaced with a KRH solution containing a test compound, 0.025% lactic acid and 1 mM CaCl2, followed by aerating with a mixed gas containing 95% O2/5% CO2 at 37° C. for 30 minutes. After taking a photograph under a microscope, a KRH solution containing veratrine, 0.025% lactic acid and 1 mM CaCl2 was added to each well so that the final concentration of veratrin becomes 100 gg/mL, followed by taking a photograph of morphological changes of the cells after 5 minutes passed from the addition. A change from the rod-shape cell to a spherical cell was defined as contraction by veratrine. Veratrine in this concentration can contract all the cells. The concentration of the test compound when half of the cells were contracted was defined as IC50 (μmol/L) that can be calculated by a probit analysis.

[2] = test system: Ischemia-Reperfusion Induced Arrythmia Model in Rats; experiment: Suppression effect on ischemia-reperfusion induced arrythmia in rats; type: in vivo, rat
Experimental: [Suppression Effect on Ischemia-Reperfusion Induced Arrythmia in Rats]
The test compounds were administered to rats starved from a day before by gavage at a dosage of 10 mL/kg under an awaken condition. The rats were anesthetized with 60 mg/kg (i.p.) of sodium pentobarbital after 35 minutes passed from the administration, and were fixed on a warmed sheet in supine position. The body temperature was kept at 37° C. during the experiment, and artificial respiration was started under a condition of 15 mL/Kg and 55 strokes/minutes. […] Then, the left chest was open, and the left major coronary artery at an atrium side was sewed using a needle with a thread in order to ligate the coronary artery. After stabilizing for about 10 minutes (after 60 minutes passed from the administration), the coronary artery was ligated for 5 minutes, and re-perfused for 10 minutes thereafter. The ligation of the coronary artery was conducted by inserting a suture through a snare made of a polyethylene tube and pulling the both ends of the suture, followed by pressing the snare onto the heart. The re-perfusion was conducted by removing the snare. The aortic blood pressure was measured with a pressure transducer. An electrocardiogram was led by a standard lead II. […] After the completion of the experiments, generation of ventricular fibrillation was confirmed for each individual using an analysis software running on the personal computer, and incidence (%) of the ventricular fibrillation was determined for each administration group.

[3] = test system: Electrocardiogram in Rats; experiment: Effect on electrocardiogram in rats; type: in vivo; conditions: 5 mg/kg intravenous, anesthetized rat, two minutes after administration
Experimental: [Effect on Electrocardiogram in Rats]
After anesthetizing with 1.5 g/kg (s.c.) of urethane, a rat was fixed on a warm plate at its supination. Polyethylene tubes for administering a test compound and for measuring the blood pressure were inserted into and fixed to the jugular vein and femoral artery, respectively. The blood pressure of the artery was measured using a pressure transducer. An electrode was attached to the animal, electrocardiograms were led by the standard lead II. The heart rate was measured by using a heart rate counter. The test compound was given by intravenous injection when the blood pressure and heat rate had been stabilized after the operation. […] Each parameter on the electrocardiogram was processed using an analysis software running on the personal computer to calculate the rate of change as compared with that before administration.

[4] = test system: female Crj(SD)IGS rats
[5] = oral gavage once a day for 14 days, 6-week aged female rats
[6] = Table 2-2, 5 mg/kg by gavage, solvent group 57.1

| SMILES | IC50 [1] | Incidence (%) of the ventricular fibrillation ([2]; Table 2-1, 5 mg/kg by gavage, ligation 60 min after administration, solvent group 63.6) | Incidence (%) of the ventricular fibrillation ([2]; Table 2-1, 10 mg/kg by gavage, solvent group 63.6) | Incidence (%) of the ventricular fibrillation ([2]; Table 2-1, 20 mg/kg by gavage, solvent group 63.6) | PQ Distance (rate of change) [3] | QRS Width (rate of change) [3] | daily dosage at which no fatal cases were observed [4, 5] | Incidence (%) of the ventricular fibrillation [2, 6] | daily dosage at which no fatal cases were observed ([4]; female, Crj(SD)IGS, rat, in vivo, po, 14 days) |
| --- | --- | --- | --- | --- | --- | --- | --- | --- | --- |
| CCCCOc1ccc(N(C)CCC2(O)CCN(Cc3ccccc3)CC2)cc1 [Example 146, 1-benzyl-4-[2-[N-(4-n-butoxyphenyl)-N-methylamino]ethyl]piperidin-4-ol dihydrochloride] | 1200 nM | 30.0% | 11.1% | 0.0% | — (The rate of change at two minutes after administration is 15% or less as compared with that before administration.) | — (The rate of change at two minutes after administration is 15% or less as compared with that before administration.) | ≤ 100 mg/kg |  |  |
| COC(=O)c1ccc(CN2CCC(O)(CCN(C)c3ccc(OC(C)C)cc3)CC2)cc1 [Example 233, 1-[4-(methoxycarbonyl)phenylmethyl]-4-[2-[N-methyl-N-(4-isopropoxyphenyl)amino]ethylipiperidin-4-oldihydrochloride] |  |  |  |  | — (The rate of change at two minutes after administration is 15% or less as compared with that before administration.) | — (The rate of change at two minutes after administration is 15% or less as compared with that before administration.) |  | 28.6% | ≤ 50 mg/kg |
| CC(C)Oc1ccc(N(C)CCC2(O)CCN(C(c3ccccc3)c3ccccc3)CC2)cc1 [Example 278, 1-diphenylmethyl-4-[2-[N-methyl-N-(4-isopropoxyphenyl)-amino]ethyl]piperidin-4-ol dihydrochloride] | 300 nM |  |  |  | — (The rate of change at two minutes after administration is 15% or less as compared with that before administration.) | — (The rate of change at two minutes after administration is 15% or less as compared with that before administration.) | ≤ 20 mg/kg | 0.0% |  |
